{
  "source": "paper PMC5556071",
  "about": "“ATR inhibition facilitates targeting of leukemia dependence on convergent nucleotide biosynthetic pathways” (Nature Communications, 2017)",
  "test_system": "CEM cells",
  "assay": "Quantitative global proteomics (nLC-MS/MS), cells 12 h after release from G1 arrest",
  "format": "cell-based, human",
  "parameters": "key to RNR Level / dCK Level: ↓: partial decrease/inhibition; ↓↓↓: nearly complete inhibition; ↑: increase; ⟷: no change",
  "details": "for Protein expression level normalized to control (NT): Eukaryotic translation initiation factor 6 (EIF6) / Protein expression level normalized to control (NT): Ribonucleoside-diphosphate reductase subunit M2 (RRM2) / Protein expression level normalized to control (NT): Translationally-controlled tumor protein (TPT1): 12 h following release from G1 arrest, independent analyses #1-#4; for RNR Level / dCK Level: summary Fig. 2g, CEM cells",
  "procedure": "To investigate the molecular mechanisms underlying the metabolic consequences of ATR and dCK inhibition, global changes in protein expression were assessed in CEM cells using quantitative nano-LC tandem MS (nLC-MS/MS) (Fig. 2a). Chemical isotope coding following reductive dimethylation of peptide N-termini and lysine primary amines with differential stable isotopes (light:medium:heavy) was used to compare expression of experimental (VE-822, dCKi and VE-822 + dCKi) samples to controls (untreated, NT) by mixing equal proportions for triplex nLC-MS/MS quantitative analyses. The data set was filtered for proteins identified in all treatment groups in three independent experiments with coefficients of variation <20%. This yielded 1757 proteins with relative fold changes in treated vs. untreated cells ranging from 0.45 to 1.83. […] Protein levels of both RNR subunits, RRM1 and RRM2, as well as thymidylate synthase decreased by more than 20% following ATR inhibition (Fig. 2c). Changes in the expression of de novo enzymes observed in synchronous cells also occurred with ATR inhibition in asynchronous CEM cells (Fig. 2d and Supplementary Data 3), thereby arguing against the possibility of experimental artifacts introduced by Palbociclib-mediated cell cycle synchronization. The reduction in RRM2 levels induced by ATR inhibition was accompanied by an ~ 50% decrease in the phosphorylation of RRM2 on threonine 33 (pT33) (Fig. 2e), a phosphosite previously linked to the RRM2 stability. […]\nProteomic analyzes. CCRF-CEM cells were treated ± with a CDK4/6 inhibitor, PD-0332991 (Selleckchem) for 18 h to arrest at G1 phase. Cells were then washed twice with PBS and released in fresh media with treatment at a density of 1 x 10^6 cells/mL. Cells were collected at 12 h, washed twice with ice-cold PBS, and lysed by trituration using 1 mL per 5 x 10^7 cells of 0.5% sodium deoxycholate, 12 mM sodium lauryl sarcosine, and 50 mM triethylammonium bicarbonate, pH 8.0. Lysates were heated at 95 °C for 5 min and water bath sonicated at room temperature (RT) for 5 min. Bicinchoninic acid protein assay (Pierce) was performed to determine protein concentration. Disulfide bridges were reduced with 5 mM tris(2-carboxyethyl)phosphine (final concentration) at RT for 30 min with subsequent treatment with 10 mM iodoacetamide (final concentration) at RT in the dark for 30 min. Solutions were diluted 1:5 (v:v) with 50 mM triethylammonium bicarbonate. Proteins were cleaved with sequencing grade trypsin (Promega) at 1:100 (enzyme:protein) for 4 h at 37 °C followed by a second aliquot of trypsin 1:100 (enzyme:protein) overnight at 37 °C. Samples were acidified with 0.5% trifluoroacetic acid (final concentration), vortexed rapidly for 5 min, and centrifuged (16,000 x g for 5 min, RT) to pellet sodium deoxycholate. Supernatants were transferred to new microcentrifuge tubes and 20 µg of total peptide were desalted using C18 StageTips as previously described2. On-column dimethyl labeling using C18 StageTips was performed as previously described3. Briefly, StageTips were equilibrated with 20 μL of 250 mM 2-(N-morpholino)ethanesulfonic acid (MES) pH 5.5. Tryptic peptides were dimethyl labeled using 60 mM sodium cyanoborohydride, 0.4% formaldehyde, and 250 mM MES pH 5.5 for 10 min. Dimethyl labeled peptides were eluted from StageTips using 20 μL of 80% acetonitrile with 0.1% trifluoroacetic acid and lyophilized to dryness. Due to the nature of comparing 4 sample groups and being limited to 3 channels for stable isotope reductive amination labeling, two independent multiplexed experiments were run with each",
  "note": "Several values for one entry are separate records, joined by “and”; a condition that tells them apart may be missing. Equal values may be shown once.",
  "data": [
    {"compound": "COc1ccc(-c2nc([C@@H](C)Sc3nc(N)cc(N)n3)c(C)s2)cc1OCCNS(C)(=O)=O", "note": "[dCKi]", "values": [
      {"measurement": "Protein expression level normalized to control (NT): Eukaryotic translation initiation factor 6 (EIF6)", "setting": "listed as DI-82", "result": "1.00 and 0.98 and 0.95 and 0.99"},
      {"measurement": "Protein expression level normalized to control (NT): Ribonucleoside-diphosphate reductase subunit M2 (RRM2)", "setting": "listed as DI-82", "result": "1.17 and 0.99 and 1.08 and 1.15"},
      {"measurement": "Protein expression level normalized to control (NT): Translationally-controlled tumor protein (TPT1)", "setting": "listed as DI-82", "result": "0.99 and 0.98 and 0.95"},
      {"measurement": "RNR Level", "result": "⟷"},
      {"measurement": "dCK Level", "result": "⟷"}
    ]},
    {"compound": "CNCc1ccc(-c2cc(-c3nc(-c4ccc(S(=O)(=O)C(C)C)cc4)cnc3N)on2)cc1", "note": "[VE-822]", "values": [
      {"measurement": "Protein expression level normalized to control (NT): Eukaryotic translation initiation factor 6 (EIF6)", "result": "1.09 and 1.10 and 1.08"},
      {"measurement": "Protein expression level normalized to control (NT): Ribonucleoside-diphosphate reductase subunit M2 (RRM2)", "result": "0.57 and 0.45 and 0.53"},
      {"measurement": "Protein expression level normalized to control (NT): Translationally-controlled tumor protein (TPT1)", "result": "0.80 and 0.79 and 0.85"},
      {"measurement": "decrease of RRM1 protein level", "setting": "following ATR inhibition, 12 h", "result": "> 20", "unit": "%"},
      {"measurement": "decrease of RRM2 protein level", "setting": "following ATR inhibition, 12 h", "result": "> 20", "unit": "%"},
      {"measurement": "decrease of thymidylate synthase protein level", "setting": "following ATR inhibition, 12 h", "result": "> 20", "unit": "%"},
      {"measurement": "RNR Level", "result": "↓"},
      {"measurement": "dCK Level", "result": "⟷"}
    ]}
  ]
}
